From patent US7262212B2, “2,3-dihydro-6-nitroimidazo[2,1-b]oxazoles” (Otsuka Pharmaceutical Co., Ltd., priority 2002, dated 2007)

| melting point | Structure (SMILES) |
| --- | --- |
| 132 to 136 °C | C[C@]1(CN2CCC(OCc3ccc(Cl)c(Cl)c3)CC2)Cn2cc([N+](=O)[O-])nc2O1 |
| 264.6 to 268.3 °C (dec.) | CN(C)c1ccc2c(c1)n(CC1(C)Cn3cc([N+](=O)[O-])nc3O1)c(=O)n2C (stereo not drawn) |
| 164 to 165 °C (dec.) | CC1(CN2CCN(C(=S)Nc3ccccc3)CC2)Cn2cc([N+](=O)[O-])nc2O1 (stereo not drawn) |
| 180 to 182 °C | C[C@]1(COC(=O)N2CCc3cc(Cl)ccc3C2)Cn2cc([N+](=O)[O-])nc2O1 |
| 185 to 188 °C (dec.) | CC1(CN2CCN(C(=O)Nc3ccc(Cl)cc3)CC2)Cn2cc([N+](=O)[O-])nc2O1 (stereo not drawn) |
| 182 to 184 °C | C[C@]1(CN2CCN(Cc3ccc(-c4ccccc4)cc3)CC2)Cn2cc([N+](=O)[O-])nc2O1 |
| 174 to 175 °C | C[C@]1(CN2CCC(N3CCN(CC=Cc4ccc(OC(F)(F)F)cc4)CC3)CC2)Cn2cc([N+](=O)[O-])nc2O1 |
| 133 to 135 °C | O=C(CN1CCN(CC(=O)N2CCC3(CC2)Cn2cc([N+](=O)[O-])nc2O3)CC1)Nc1ccc(C(F)(F)F)cc1 |
| 98 to 101 °C | C[C@]1(CN2CCN(C(=O)NC3CCCCC3)CC2)Cn2cc([N+](=O)[O-])nc2O1 |
| 142 to 145 °C | C[C@]1(CN2CCN(C(=O)CSc3ccc(Cl)cc3)CC2)Cn2cc([N+](=O)[O-])nc2O1 |
| 205.7 to 208.1 °C | CC1(CN2CCN(Cc3ccc(Br)cc3)C2=O)Cn2cc([N+](=O)[O-])nc2O1 (stereo not drawn) |
| 205.5 to 207 °C | C[C@]1(COc2ccc(N3CCN(Cc4ccc(C(F)(F)F)cc4)CC3)cc2)Cn2cc([N+](=O)[O-])nc2O1 |
| 124.5 to 128.1 °C | CN(CC1Cn2cc([N+](=O)[O-])nc2O1)C(=O)OCc1ccc(F)cc1 (stereo not drawn) |
| 201.5 to 203.2 °C | C[C@]1(COc2ccc(N3CCN(C(=O)c4ccc(OC(F)(F)F)cc4)CC3)cc2)Cn2cc([N+](=O)[O-])nc2O1 |
| 183 to 183.5 °C | O=[N+]([O-])c1cn2c(n1)O[C@@H](CN1CCN(c3ccc(Cl)cc3)CC1)C2 |
| 168.9 to 169.9 °C | CN(CC1(C)Cn2cc([N+](=O)[O-])nc2O1)C(=O)OCc1ccc(F)cc1 (stereo not drawn) |
| 190.2 to 191.8 °C | C[C@]1(CN2CCN(N=Cc3cc4cc(C(F)(F)F)ccc4o3)CC2)Cn2cc([N+](=O)[O-])nc2O1 |
| 261.3 to 263.3 °C | Cn1c(=O)n(CC2(C)Cn3cc([N+](=O)[O-])nc3O2)c2ccc(Cl)cc21 (stereo not drawn) |
| 145 to 147.7 °C | C[C@]1(CN2CCN(c3cccnc3)CC2)Cn2cc([N+](=O)[O-])nc2O1 |
| 158 to 159 °C | C[C@]1(CN2CCN(C(=O)OCC=Cc3c(F)cc(F)cc3F)CC2)Cn2cc([N+](=O)[O-])nc2O1.O=C(O)/C=C\C(=O)O |
| 232 to 234 °C | CC(=O)N1CCC2(CC1)Cn1cc([N+](=O)[O-])nc1O2 |
| 207 to 209.5 °C | CC(C)(C)OC(=O)N1CCN(c2ccc(OC[C@@]3(C)Cn4cc([N+](=O)[O-])nc4O3)cc2Cl)CC1 |
| 139.5 to 140.5 °C | C[C@]1(CN2CCN(C(=O)OCc3ccc(OC(F)(F)F)cc3)CC2)Cn2cc([N+](=O)[O-])nc2O1 |
| 236 to 238.7 °C | C[C@]1(COc2ccc(-n3cncn3)cc2)Cn2cc([N+](=O)[O-])nc2O1 |
| 141.2 to 144 °C | C[C@]1(CN2CCC(NC(=O)OCc3ccc(C(F)(F)F)cc3)CC2)Cn2cc([N+](=O)[O-])nc2O1 |
| 182.5 to 183.3 °C | CC1(CN2CCN(Cc3ccc(F)cc3)C2=O)Cn2cc([N+](=O)[O-])nc2O1 (stereo not drawn) |

| melting point | Structure (SMILES) |
| --- | --- |
| 189 to 190 °C | CN1C(=O)CCc2cc(COC(=O)N3CCN(C[C@@]4(C)Cn5cc([N+](=O)[O-])nc5O4)CC3)ccc21 |
| 168 to 171.4 °C | CC1(CN2CCN(C(=O)Cc3ccc(C(F)(F)F)cc3)CC2)Cn2cc([N+](=O)[O-])nc2O1 (stereo not drawn) |
| 175 to 175.4 °C | COc1ccc(CN2CCN(CC3(C)Cn4cc([N+](=O)[O-])nc4O3)C2=O)c(OC)c1 (stereo not drawn) |
| 158.6 to 160.5 °C | COc1ccc(CN2CCN(CC3(C)Cn4cc([N+](=O)[O-])nc4O3)C2=O)cc1 (stereo not drawn) |
| 101 to 102 °C | CC(=O)c1ccc(COC(=O)N2CCN(CC3(C)Cn4cc([N+](=O)[O-])nc4O3)CC2)cc1 (stereo not drawn) |
| 176.5 to 178 °C | C[C@]1(COc2ccc(OC(F)(F)F)cc2)Cn2cc([N+](=O)[O-])nc2O1 |
| 160.6 to 161.1 °C | CC1(COc2ccc(C3CCN(Cc4ccc(OC(F)(F)F)cc4)CC3)cc2)Cn2cc([N+](=O)[O-])nc2O1 (stereo not drawn) |
| 187.6 to 189.6 °C | CC1(CCN2CCN(c3nc4ccccc4o3)CC2)Cn2cc([N+](=O)[O-])nc2O1 (stereo not drawn) |
| 110 to 111 °C | C[C@]1(CN2CCC(N3CCN(C(=O)OCc4ccc(OC(F)(F)F)cc4)CC3)CC2)Cn2cc([N+](=O)[O-])nc2O1 |
| 121 to 122 °C | Cc1ccc(C(=O)N2CCN(CC3(C)Cn4cc([N+](=O)[O-])nc4O3)CC2)cc1 (stereo not drawn) |
| 138.7 to 139.9 °C | C[C@]1(CN2CCC(c3ccc(C(F)(F)F)cc3)CC2)Cn2cc([N+](=O)[O-])nc2O1 |
| 240.5 to 244.8 °C | CC(C)n1c(=O)n(CC2(C)Cn3cc([N+](=O)[O-])nc3O2)c2cc(Cl)ccc21 (stereo not drawn) |
| 183 to 184 °C | CC1(CN2CCN(C(=O)Nc3cccc(C(F)(F)F)c3)CC2)Cn2cc([N+](=O)[O-])nc2O1 (stereo not drawn) |
| 159 to 160 °C | CC1(CN2CCN(c3ccc(C(F)(F)F)cc3)CC2)Cn2cc([N+](=O)[O-])nc2O1 (stereo not drawn) |
| 162.5 to 163.2 °C | CCOC(=O)c1ccccc1NCC1(C)Cn2cc([N+](=O)[O-])nc2O1 (stereo not drawn) |
| 200 to 201 °C | C[C@]1(COC(=O)N(c2ccc(Cl)cc2)c2ccc(Cl)cc2)Cn2cc([N+](=O)[O-])nc2O1 |
| 163.4 to 164.9 °C | C[C@]1(CN2CCC(N3CCCCC3)CC2)Cn2cc([N+](=O)[O-])nc2O1 |
| 105 to 107 °C | CC1(CN2CCN(C(=O)OCc3ccc(C(=O)c4ccccc4)cc3)CC2)Cn2cc([N+](=O)[O-])nc2O1 (stereo not drawn) |
| 91 to 93 °C | C[C@]1(CN2CCN(C(=O)OCC=Cc3ccc(OC(F)(F)F)cc3)CC2)Cn2cc([N+](=O)[O-])nc2O1 |
| 101 to 103.6 °C | C[C@]1(CN2CCN(C(=O)NCc3ccc(C(F)(F)F)cc3)CC2)Cn2cc([N+](=O)[O-])nc2O1 |
| 204 to 206 °C (dec.) | CC1(CN2CCN(C(=S)Nc3ccc(Cl)cc3)CC2)Cn2cc([N+](=O)[O-])nc2O1 (stereo not drawn) |
| 212 to 214 °C | CC1(c2cccnc2)Cn2cc([N+](=O)[O-])nc2O1 (stereo not drawn) |
| 195 to 197 °C (dec.) | O=C(CN1CCC2(CC1)Cn1cc([N+](=O)[O-])nc1O2)N1CCN(Cc2ccc(C(F)(F)F)cc2)CC1 |
| 125 to 125.5 °C | O=C(OCc1ccc(C(F)(F)F)cc1)N1CCN(C[C@H]2Cn3cc([N+](=O)[O-])nc3O2)CC1 |
| 176.2 to 178.8 °C | CNCC1(C)Cn2cc([N+](=O)[O-])nc2O1.O=C(O)C(F)(F)F (stereo not drawn) |
| 186 to 187 °C | CC1(CN2CCN(C(=O)N3CCC(c4ccc(Cl)cc4)CC3)CC2)Cn2cc([N+](=O)[O-])nc2O1 (stereo not drawn) |

| melting point | Structure (SMILES) |
| --- | --- |
| 242 to 244 °C | O=C(Oc1ccccc1)N1CCC2(CC1)Cn1cc([N+](=O)[O-])nc1O2 |
| 231 to 233 °C | O=C(Nc1ccc(OC(F)(F)F)cc1)N1CCC2(CC1)Cn1cc([N+](=O)[O-])nc1O2 |
| 182.5 to 183.4 °C | CCOC(=O)NCC1(C)Cn2cc([N+](=O)[O-])nc2O1 (stereo not drawn) |
| 175 to 176.3 °C | CC(C)NC(=O)N1CCN(CC2(C)Cn3cc([N+](=O)[O-])nc3O2)CC1 (stereo not drawn) |
| 150 to 155.2 °C | CC1(CN2CCN(C(=O)c3ccc(Cl)cc3)CC2)Cn2cc([N+](=O)[O-])nc2O1 (stereo not drawn) |
| 152 to 154 °C | CC1(COC(=O)N2CCCCC2)Cn2cc([N+](=O)[O-])nc2O1 (stereo not drawn) |
| 222.5 to 224 °C | CC(C)(C)OC(=O)N1CCN(C(=O)c2ccc(OC[C@@]3(C)Cn4cc([N+](=O)[O-])nc4O3)cc2)CC1 |
| 124 to 126 °C | CC1(CN2CCC(=O)CC2)Cn2cc([N+](=O)[O-])nc2O1 (stereo not drawn) |
| 140 to 147 °C | CC1(CSc2nnnn2-c2ccccc2)Cn2cc([N+](=O)[O-])nc2O1 (stereo not drawn) |
| 141 to 143 °C | O=[N+]([O-])c1cn2c(n1)O[C@H](CN1CCN(Cc3ccc(C(F)(F)F)cc3)CC1)C2 |
| 127.2 to 129.7 °C | CNC(C1CCN(c2ccc(OC(F)(F)F)cc2)CC1)[C@]1(C)Cn2cc([N+](=O)[O-])nc2O1 (stereo partly drawn) |
| 136 to 138 °C | C[C@]1(CN2CCN(C(=O)OCC=Cc3cccc(C(F)(F)F)c3)CC2)Cn2cc([N+](=O)[O-])nc2O1.O=C(O)/C=C\C(=O)O |
| 168 to 169 °C | C[C@]1(CN2CCN(C3CCN(Cc4ccc(Cl)cc4)CC3)CC2)Cn2cc([N+](=O)[O-])nc2O1 |
| 196.6 to 197.3 °C | CC1(CN2CCN(c3ccc(Cl)cc3)CC2)Cn2cc([N+](=O)[O-])nc2O1 (stereo not drawn) |
| 193 to 194 °C | C[C@]1(CN2CCC(N3CCN(c4ccc(OC(F)(F)F)cc4)CC3)CC2)Cn2cc([N+](=O)[O-])nc2O1 |
| 133 to 134 °C | C[C@]1(CN2CCN(C3CCN(C(=O)c4ccc(OC(F)(F)F)cc4)CC3)CC2)Cn2cc([N+](=O)[O-])nc2O1 |
| 108 to 111 °C | C[C@]1(CN2CCN(C(=O)CCCCc3ccc(Cl)cc3)CC2)Cn2cc([N+](=O)[O-])nc2O1 |
| 248 to 252 °C | C[C@]1(CN2CCN(c3ccc(C(=O)O)cc3)CC2)Cn2cc([N+](=O)[O-])nc2O1 |
| 196 to 197 °C | CCN(CC)C(=O)OC[C@@]1(C)Cn2cc([N+](=O)[O-])nc2O1 |
| > 300 °C | Cc1ccc(NC(=O)N2CCC3(CC2)Cn2cc([N+](=O)[O-])nc2O3)cc1 |
| 137 to 139 °C | O=C(CN1CCN(C(=O)OCc2ccc(OC(F)(F)F)cc2)CC1)N1CCC2(CC1)Cn1cc([N+](=O)[O-])nc1O2 |
| 158 to 159 °C | CC1(CCc2nnnn2-c2ccccc2)Cn2cc([N+](=O)[O-])nc2O1 (stereo not drawn) |
| 144 to 147 °C | COc1ccc(CN(C)C[C@@]2(C)Cn3cc([N+](=O)[O-])nc3O2)cc1 |
| 184 to 187 °C | CC1(CN2CCN(C(=O)Cc3ccc(Cl)cc3)CC2)Cn2cc([N+](=O)[O-])nc2O1 (stereo not drawn) |
| 148 to 149 °C | CC1(CCN2CCN(Cc3ccc(C(F)(F)F)cc3)CC2)Cn2cc([N+](=O)[O-])nc2O1 (stereo not drawn) |
| 230.7 to 233.1 °C | CC1(COc2ccc(N3CCN(c4ccc(C(F)(F)F)cc4)CC3)cc2)Cn2cc([N+](=O)[O-])nc2O1 (stereo not drawn) |
